According to US8840924B2, “Compositions and methods of making rapidly dissolving ionically masked formulations” (NEOS Therapeutics, LP, priority 2005, dated 2014):

Assays:
[1] = Dissolution profile of capsule (release of pseudoephedrine and chlorpheniramine); format: physicochemical; conditions: Table 4, capsules
Description: In addition the composition may be in the form of a capsule. Below is a list of actual assay results for one example of the present invention when in the form of a capsule.

[2] = Dissolution profile of chewable tablet (release of pseudoephedrine and chlorpheniramine); format: physicochemical
Description: Below is a list of actual assay results for one example of the present invention with the composition listed as formula II above.
Below is a list of assay results for one example of the present invention with the composition listed as formula II above.

[3] = Table 1, chewable tablet, composition formula II
[4] = Table 2, after Example III, text says formula II
[5] = Table 3, composition listed as formula II

Row | Compound | release, 90 min (%) [1] | release, 3 Hr (%) [1] | release, 6 Hr (%) [1] | release, 12 Hr (%) [1] | release, 30 min (%) [2, 3] | release, 30 min (%) ([2]; Table 1, chewable tablet, composition formula II, listed as pseudoephedrine) | release, 1 Hr (%) [2, 3] | release, 3 Hr (%) [2, 3] | release, 8 Hr (%) [2, 3] | release, 30 min (%) [2, 4] | release, 1 Hr (%) [2, 4] | release, 3 Hr (%) [2, 4] | release, 8 Hr (%) [2, 4] | release, 30 min (%) [2, 5] | release, 1 Hr (%) [2, 5] | release, 3 Hr (%) [2, 5] | release, 8 Hr (%) [2, 5]
1 | CN[C@@H](C)[C@@H](O)c1ccccc1 [Pseudoephedrine] | 34.8% | 54.1% | 75.4% | 91.7% | 27.6% | 26.7% | 37.8% | 59.4% | 82.0% | 27.0% | 36.3% | 53.0% | 78.4% | 29.2% | 39.7% | 61.2% | 85.2%
2 | CN(C)CCC(c1ccc(Cl)cc1)c1ccccn1 (stereo not drawn) [Chlorpheniramine] | 21.9% | 35.4% | 55.2% | 78.6% | 35.1% | – | 42.7% | 51.6% | 60.8% | 36.4% | 42.1% | 51.0% | 60.7% | 40.1% | 45.1% | 53.3% | 62.1%
